The compounds below were run on Cysteine-containing peptide for DPRA (assay: Skin sensitization test in accordance with DPRA (direct peptide reactivity assay)). Conditions: relative to peptide decrease percentage of Comparative Example 1 regarded as 100; 50 μL 1,3-butylene glycol with 0.667 mM peptide solution; HPLC after 72±2 hours; average of three measurements.
Description: The product 1,3-butylene glycol in the present embodiment has reduced skin sensitization. Here, skin sensitization refers to causing an allergic reaction after skin contact. For the evaluation of skin sensitization, it had been normal to use experimental animals, but a direct peptide reactivity assay (DPRA), which is an in chemico test, was adopted as an alternative test in OECD guideline TG442C in 2015 from the viewpoint of animal welfare, and in the present embodiment as well, skin sensitization is evaluated by a test in accordance with DPRA. In more detail, skin sensitization is evaluated according to a method described in experimental examples to be described below.
Regarding 1,3-butylene glycol obtained in Examples 1 and 2 and Comparative Examples 1 and 2, skin sensitization was evaluated according to the following method.
15 mg of Cysteine-containing peptide for DPRA manufactured by Scrum Inc. and 30 mL of a 0.05 M phosphate buffer were mixed together to prepare a 0.05 M phosphate buffer solution containing 0.667 mM of the peptide (hereinafter, peptide solution). After one hour elapsed from the preparation of the peptide solution, 750 μL of the peptide solution and 250 μL of acetonitrile were put into each of three brown sample bottles for HPLC to prepare three reference solutions. After two hours elapsed from the preparation of the reference solutions, 750 μL of the peptide solution, 200 μL of acetonitrile and 50 μL of 1,3-butylene glycol were put into a different brown sample bottle for HPLC to prepare a sample solution (sample solution 1). Furthermore, sample solutions were prepared by the same operation after four hours and six hours elapsed from the preparation of the sample solution, respectively (sample solution 2 and sample solution 3). Regarding each of the three reference solutions and the sample solutions (sample solution 1, sample solution 2 and sample solution 3), measurement by HPLC analysis was performed after 72±2 hours elapsed from the preparation of each solution, and the average values of three measurements were calculated for the peak height of the peptide in the reference solutions and the sample solutions, respectively. The peptide decrease percentage was calculated using the following formula (1) from the calculated average values of three measurements.
Peptide decrease percentage (%)=(average value of three measurements for peak height of peptide in sample solutions/average value of three measurements for peak height of peptide in reference solutions)×100 (1)
In addition, regarding the present test, samples of the product 1,3-butylene glycol to be compared were tested on the same day from the viewpoint of the reproducibility. […]

SMILES | Relative value of peptide decrease percentage
CC(O)CCO (stereo not shown) [Comparative Example 2, 1,3-butylene glycol] | 121
CC(O)CCO (stereo not shown) [Example 1, 1,3-butylene glycol] | 73
CC(O)CCO (stereo not shown) [Example 2, 1,3-butylene glycol] | 85
CC(O)CCO (stereo not shown) [Comparative Example 1, 1,3-butylene glycol] | 100
